From patent US9334285B2, “Aldosterone synthase inhibitors” (Boehringer Ingelheim International GmbH, priority 2014, dated 2016) come the findings set out here.

Read-outs that look alike come from different tables or passages of the source. Where only a bound is given, the exact number is not on record here.

For experiment [1], the target named is T1, aldosterone synthase (CYP11B2) (Macaca fascicularis, UniProt A0A2K5UPL9).
T1 construct: employ cynomolgus adrenal gland mitochondria as the source of aldosterone synthase (CYP11B2); from tissue; host or cells: cynomolgus monkey adrenal gland mitochondria
T1 sequence (A0A2K5UPL9 1-503): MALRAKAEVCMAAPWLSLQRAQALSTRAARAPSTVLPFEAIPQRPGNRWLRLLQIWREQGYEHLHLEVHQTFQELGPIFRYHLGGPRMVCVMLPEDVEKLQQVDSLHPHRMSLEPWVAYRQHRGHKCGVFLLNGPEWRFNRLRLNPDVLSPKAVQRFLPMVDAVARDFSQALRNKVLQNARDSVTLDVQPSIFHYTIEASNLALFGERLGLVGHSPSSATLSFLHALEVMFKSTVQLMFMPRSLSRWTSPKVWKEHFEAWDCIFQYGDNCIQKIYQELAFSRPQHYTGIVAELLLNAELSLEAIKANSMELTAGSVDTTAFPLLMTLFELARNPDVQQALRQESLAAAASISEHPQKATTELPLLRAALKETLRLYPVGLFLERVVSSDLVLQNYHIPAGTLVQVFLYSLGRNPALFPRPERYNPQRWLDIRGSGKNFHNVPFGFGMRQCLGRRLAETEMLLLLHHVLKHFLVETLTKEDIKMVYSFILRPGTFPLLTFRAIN
Nature of the experiment: Inhibition of aldosterone synthase, cynomolgus adrenal mitochondria, aldosterone quantified by mass spectrometry. Type of experiment: biochemical, cynomolgus monkey. As to conditions: 2 μM corticosterone, 90 minutes at 37° C. A digest of the protocol: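 Cynomolgus adrenal mitochondria (50 units CYP11B2 activity) incubated with 2 μM corticosterone in 100 mM potassium phosphate pH 7.4, 1% DMSO; started with 1 mM NADPH, 90 min at 37 °C. Aldosterone quantified by mass spectrometry; no-NADPH blank as 0%, no-compound as 100% activity, across compound concentrations.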

Experiment [2] addresses cortisol synthase (CYP11B1) (Macaca fascicularis, UniProt A0A2K5ULY1). Kind of experiment: Inhibition of cortisol synthesis, cynomolgus adrenal mitochondria, 11-deoxycortisol as substrate. It counts as biochemical, cynomolgus monkey. As to conditions: 150 units of CYP11B1, 11-deoxycortisol as substrate.
Another experiment deals with T2, rhCYP17A1 (Homo sapiens, UniProt P05093).
T2 construct: purchased Cypex
T2 sequence (P05093 1-508): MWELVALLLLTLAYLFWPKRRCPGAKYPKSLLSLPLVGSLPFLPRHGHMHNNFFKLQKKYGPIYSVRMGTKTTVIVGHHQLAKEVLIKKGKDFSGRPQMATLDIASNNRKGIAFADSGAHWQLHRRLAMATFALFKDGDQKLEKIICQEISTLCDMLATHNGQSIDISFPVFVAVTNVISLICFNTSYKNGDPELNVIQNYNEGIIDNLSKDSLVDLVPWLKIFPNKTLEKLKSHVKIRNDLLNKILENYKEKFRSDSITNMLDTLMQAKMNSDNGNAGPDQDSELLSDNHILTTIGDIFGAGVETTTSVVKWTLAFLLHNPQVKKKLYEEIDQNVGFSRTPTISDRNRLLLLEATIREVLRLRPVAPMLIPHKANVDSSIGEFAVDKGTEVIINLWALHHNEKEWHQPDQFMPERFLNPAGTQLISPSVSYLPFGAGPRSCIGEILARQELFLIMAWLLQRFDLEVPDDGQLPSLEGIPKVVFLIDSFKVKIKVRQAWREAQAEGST
Kind of experiment: Inhibition of CYP17A1, progesterone to 17-α-hydroxyprogesterone, mass spectrometry. Type of experiment: biochemical. How it is done: Compounds of the invention may also be evaluated for inhibition of CYP17A1 via the following assay:
Reactions are started by the addition of NADPH to 1 mM and allowed to proceed for 15 minutes at 37° C. Reactions are terminated by the addition of 40 μL of MeCN containing an internal standard for mass spectrometry. The plates are centrifuged at 3000 rpm for 5 min and the reaction product 17-α-hydroxyprogesterone is quantified by mass spectrometry. To determine the assay blank value (0% activity), NADPH is omitted from some reactions.
Dose dependent inhibition is quantified by the inclusion of compound at various concentrations. Maximum activity (100%) is defined by reactions containing NADPH, but without compound.

A further experiment concerns the target T3, CYP19A1 (Homo sapiens, UniProt P11511).
T3 sequence (P11511 1-503): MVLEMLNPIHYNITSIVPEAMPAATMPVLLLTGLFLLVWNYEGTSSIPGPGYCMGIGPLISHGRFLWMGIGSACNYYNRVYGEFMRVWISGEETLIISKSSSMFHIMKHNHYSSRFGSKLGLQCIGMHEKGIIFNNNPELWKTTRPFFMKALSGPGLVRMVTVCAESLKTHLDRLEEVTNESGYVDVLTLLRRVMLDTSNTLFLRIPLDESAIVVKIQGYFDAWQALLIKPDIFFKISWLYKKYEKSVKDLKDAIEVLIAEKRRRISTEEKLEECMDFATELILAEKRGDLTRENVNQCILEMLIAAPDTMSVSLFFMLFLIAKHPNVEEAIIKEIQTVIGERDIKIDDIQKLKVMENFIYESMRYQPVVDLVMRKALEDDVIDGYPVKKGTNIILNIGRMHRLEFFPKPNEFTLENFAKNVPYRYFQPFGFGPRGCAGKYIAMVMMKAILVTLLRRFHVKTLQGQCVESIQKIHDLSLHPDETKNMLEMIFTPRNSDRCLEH
Kind of experiment: Inhibition of CYP19A1 (Kragie et al.). Type of experiment: biochemical.

The mark [3] stands for this setting: cynomolgus adrenal mitochondria, read-out: Cortisol Inhibition IC50.
Setting [4] is: rhCYP17A1, 150 nM progesterone, 15 minutes at 37° C., read-out: CYP17A1 IC50.

One may read the IC50 as the point on the concentration scale where inhibition reaches its midpoint.

With `Cc1cc(-n2cnc3c2C(=O)OC(C)(C)C3)ccc1C#N` [Compound 11, 4-{6,6-dimethyl-4-oxo-3H,4H,6H,7H-pyrano[3,4-d]imidazol-3-yl}-2-methylbenzonitrile], the concentration for half-maximal inhibition (IC50) was 0.0049 µM in experiment [1], 0.59 µM in experiment [2] (setting [3]), above 20 µM at rhCYP17A1 (setting [4]) and above 20 µM on CYP19A1 (read-out: CYP19A1 IC50).
As for `N#Cc1ccc(-n2cnc3c2C(=O)OC(CO)C3)cc1Cl` (single isomer, unassigned) [Compound 33A, 2-chloro-4-[6-(hydroxymethyl)-4-oxo-3H,4H,6H,7H-pyrano[3,4-d]imidazol-3-yl]benzonitrile], the IC50 was 0.089 µM in experiment [1]; 45 µM in experiment [2] (Cortisol Inhibition IC50, cynomolgus adrenal mitochondria); above 20 µM against rhCYP17A1; above 20 µM at CYP19A1.
Regarding `CC1(CO)Cc2ncn(-c3cccc(F)c3Cl)c2C(=O)O1` (single isomer, unassigned) [Compound 34B, 3-(2-chloro-3-fluorophenyl)-6-(hydroxymethyl)-6-methyl-3H,4H,6H,7H-pyrano[3,4-d]imidazol-4-one], the IC50 in experiment [1] was 0.12 µM; in experiment [2] (setting [3]), 19 µM; on rhCYP17A1 (setting [4]) it was above 20 µM; on CYP19A1 (read-out: CYP19A1 IC50), above 20 µM.
Regarding `CC1(CO)Cc2ncn(-c3ccc4c(c3)CCO4)c2C(=O)O1` (single isomer, unassigned) [Compound 42B, 3-(2,3-Dihydro-benzofuran-5-yl)-6-hydroxymethyl-6-methyl-6,7-dihydro-3H-pyrano[3,4-d]imidazol-4-one], the IC50 is 0.076 µM in experiment [1], above 30 µM in experiment [2] (setting [3]), above 20 µM at rhCYP17A1 (setting [4]) and above 20 µM on CYP19A1 (read-out: CYP19A1 IC50).
